Measured values reported in ChEMBL document CHEMBL5154644, “Design, Synthesis, and Structure-Activity Relationship Optimization of Pyrazolopyrimidine Amide Inhibitors of Phosphoinositide 3-Kinase γ (PI3Kγ)” (J Med Chem, 2022).
Active and inactive are the calls of the source. The calls are words filed in the database; no cut-off is given here.

Assays:
[1] = Volume of distribution at steady state in cynomolgus monkey at 1 mg/kg, iv; type: ADME, organism-based, Macaca fascicularis; conditions: in vivo
[2] = Half life in cynomolgus monkey at 1 mg/kg, iv; type: ADME, organism-based, Macaca fascicularis; conditions: in vivo
[3] = MRT (infinity) in cynomolgus monkey at 1 mg/kg, iv; type: ADME, organism-based, Macaca fascicularis; conditions: in vivo
[4] = Metabolic stability in human hepatocytes assessed as parent compound remaining at 0.5 uM measured after 4 hrs by LC-MS/MS analysis; type: ADME, cell-based, Hepatocyte; conditions: read-out: Stability
[5] = target: T1, Phosphatidylinositol 4,5-bisphosphate 3-kinase catalytic subunit gamma isoform (Homo sapiens, UniProt P48736); assay: Inhibition of P13Kgamma in LPS and IFNgamma stimulated human M1 macrophage assessed as increase in TNFA expression at 1 uM pretreated for 1 hr followed by LPS and IFNgamma stimulation by qRT-PCR analysis; type: cell-based
Target sequence in this assay (P48736 whole entry, looked up, canonical isoform): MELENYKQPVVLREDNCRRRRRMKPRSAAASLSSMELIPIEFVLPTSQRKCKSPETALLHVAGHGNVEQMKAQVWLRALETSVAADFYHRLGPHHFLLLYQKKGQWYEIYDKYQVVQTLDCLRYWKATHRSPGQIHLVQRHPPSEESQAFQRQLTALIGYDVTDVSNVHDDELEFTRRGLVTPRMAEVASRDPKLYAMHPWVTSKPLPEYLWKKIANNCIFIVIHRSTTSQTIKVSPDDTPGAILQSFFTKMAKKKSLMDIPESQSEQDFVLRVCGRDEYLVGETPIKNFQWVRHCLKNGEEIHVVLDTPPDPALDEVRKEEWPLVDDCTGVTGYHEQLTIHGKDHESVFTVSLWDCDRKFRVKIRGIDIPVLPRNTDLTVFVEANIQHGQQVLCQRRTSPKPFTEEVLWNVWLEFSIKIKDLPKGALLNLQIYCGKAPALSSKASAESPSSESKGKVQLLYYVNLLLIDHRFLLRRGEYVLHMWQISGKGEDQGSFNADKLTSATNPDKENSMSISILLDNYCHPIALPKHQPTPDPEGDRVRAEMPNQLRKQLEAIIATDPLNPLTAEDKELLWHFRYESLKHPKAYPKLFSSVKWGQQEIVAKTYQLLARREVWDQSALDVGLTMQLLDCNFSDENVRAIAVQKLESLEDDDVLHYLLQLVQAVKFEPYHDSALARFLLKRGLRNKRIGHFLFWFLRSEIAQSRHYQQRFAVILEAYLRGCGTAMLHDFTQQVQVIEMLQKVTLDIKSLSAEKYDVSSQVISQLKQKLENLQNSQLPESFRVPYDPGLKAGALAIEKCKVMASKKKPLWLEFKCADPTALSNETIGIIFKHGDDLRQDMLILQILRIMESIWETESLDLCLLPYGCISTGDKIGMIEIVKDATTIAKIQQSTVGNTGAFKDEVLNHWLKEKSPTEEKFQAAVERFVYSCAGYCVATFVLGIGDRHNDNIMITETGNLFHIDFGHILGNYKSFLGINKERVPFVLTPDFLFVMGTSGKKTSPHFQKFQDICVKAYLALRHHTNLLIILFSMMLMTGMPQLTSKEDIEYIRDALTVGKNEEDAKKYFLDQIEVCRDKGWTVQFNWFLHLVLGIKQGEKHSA

[6] = Metabolic stability in human hepatocytes assessed as parent compound remaining at 0.5 uM measured after 2 hrs by LC-MS/MS analysis; type: ADME, cell-based, Hepatocyte
CYP3A4 = CYP3A4 (Homo sapiens, UniProt P08684); assay: in vitro; conditions: human liver microsomes, probe midazolam
Sequence of CYP3A4 (P08684 whole entry): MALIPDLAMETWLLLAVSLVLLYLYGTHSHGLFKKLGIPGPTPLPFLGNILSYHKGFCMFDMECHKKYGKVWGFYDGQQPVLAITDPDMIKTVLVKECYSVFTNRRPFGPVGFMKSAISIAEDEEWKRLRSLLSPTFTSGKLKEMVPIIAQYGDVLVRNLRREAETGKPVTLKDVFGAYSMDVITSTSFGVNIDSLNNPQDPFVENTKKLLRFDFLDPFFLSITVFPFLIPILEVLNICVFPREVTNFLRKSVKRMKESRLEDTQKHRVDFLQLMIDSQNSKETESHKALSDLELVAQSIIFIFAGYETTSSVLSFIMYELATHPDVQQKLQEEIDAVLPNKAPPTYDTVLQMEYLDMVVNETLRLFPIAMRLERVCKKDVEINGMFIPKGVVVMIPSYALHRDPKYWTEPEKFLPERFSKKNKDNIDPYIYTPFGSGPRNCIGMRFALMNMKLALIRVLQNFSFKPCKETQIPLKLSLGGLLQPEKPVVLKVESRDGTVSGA
Description: Time dependent inhibition of CYP3A4 in human liver microsomes at 10 uM using midazolam as substrate preincubated for 30 mins in presence of NADPH by LC/MS/MS analysis relative to control

[7] = MRT (infinity) in Sprague-Dawley rat at 1 mg/kg, iv measured up to 8 hrs by LC-MS/MS analysis; type: ADME, organism-based; conditions: in vivo
[8] = target: T1, Phosphatidylinositol 4,5-bisphosphate 3-kinase catalytic subunit gamma isoform; assay: Inhibition of P13Kgamma in LPS and IFNgamma stimulated human M1 macrophage assessed as increase in IL6 expression at 1 uM pretreated for 1 hr followed by LPS and IFNgamma stimulation by qRT-PCR analysis; type: cell-based
Target sequence in this assay (P48736 whole entry, looked up, canonical isoform): as the sequence (P48736 whole entry, looked up, canonical isoform) above

[9] = target: Phosphatidylinositol 4,5-bisphosphate 3-kinase catalytic subunit beta isoform (Homo sapiens, UniProt P42338); assay: Inhibition of PI3Kbeta (unknown origin) using PIP2 as substrate preincubated for 1 hr followed by substrate addition and measured after 60 mins in presence of ATP by ADP-glo assay
Sequence of Phosphatidylinositol 4,5-bisphosphate 3-kinase catalytic subunit beta isoform (P42338 whole entry, canonical isoform): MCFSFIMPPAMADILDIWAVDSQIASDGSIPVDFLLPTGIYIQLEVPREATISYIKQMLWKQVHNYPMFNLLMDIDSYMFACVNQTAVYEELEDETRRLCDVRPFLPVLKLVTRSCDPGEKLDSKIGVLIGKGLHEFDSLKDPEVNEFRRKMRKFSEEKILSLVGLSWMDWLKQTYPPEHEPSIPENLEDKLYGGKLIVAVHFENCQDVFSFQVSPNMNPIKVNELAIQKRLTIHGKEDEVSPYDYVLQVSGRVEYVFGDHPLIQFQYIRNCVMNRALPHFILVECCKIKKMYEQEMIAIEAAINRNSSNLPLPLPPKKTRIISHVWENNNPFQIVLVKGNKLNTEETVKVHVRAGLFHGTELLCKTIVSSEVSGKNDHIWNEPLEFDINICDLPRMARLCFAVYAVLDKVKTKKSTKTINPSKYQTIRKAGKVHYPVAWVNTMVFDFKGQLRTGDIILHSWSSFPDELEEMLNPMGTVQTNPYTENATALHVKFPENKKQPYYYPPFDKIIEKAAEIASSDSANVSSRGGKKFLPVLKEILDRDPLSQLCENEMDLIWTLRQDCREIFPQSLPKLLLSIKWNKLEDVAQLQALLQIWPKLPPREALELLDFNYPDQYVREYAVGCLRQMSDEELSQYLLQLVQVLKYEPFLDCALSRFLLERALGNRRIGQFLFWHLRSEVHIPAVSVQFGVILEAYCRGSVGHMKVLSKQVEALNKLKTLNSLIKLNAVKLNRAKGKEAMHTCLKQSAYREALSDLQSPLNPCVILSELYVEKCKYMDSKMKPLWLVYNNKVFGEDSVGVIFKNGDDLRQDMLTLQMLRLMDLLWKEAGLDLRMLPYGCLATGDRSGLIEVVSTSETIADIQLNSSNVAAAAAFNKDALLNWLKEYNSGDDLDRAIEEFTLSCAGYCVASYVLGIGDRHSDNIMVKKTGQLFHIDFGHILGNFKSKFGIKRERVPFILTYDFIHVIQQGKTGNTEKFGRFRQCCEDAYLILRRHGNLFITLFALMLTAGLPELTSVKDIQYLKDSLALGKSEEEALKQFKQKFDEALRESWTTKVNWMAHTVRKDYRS

[10] = Hepatic clearance in Sprague-Dawley rat by LC-MS/MS analysis; type: ADME; conditions: in vivo
[11] = Plasma protein binding in Sprague-Dawley rat plasma at 1 mg/kg, iv measured up to 8 hrs by LC-MS/MS analysis; type: ADME, organism-based; conditions: read-out: PPB (converted)
[12] = MRT (infinity) in Beagle dog at 1 mg/kg, iv; type: ADME, organism-based, Canis lupus familiaris; conditions: in vivo
hERG = hERG (Homo sapiens, UniProt Q12809); assay: Inhibition of human ERG at 10 uM by patch clamp assay relative to control; type: toxicity
Sequence of hERG (Q12809 whole entry, canonical isoform): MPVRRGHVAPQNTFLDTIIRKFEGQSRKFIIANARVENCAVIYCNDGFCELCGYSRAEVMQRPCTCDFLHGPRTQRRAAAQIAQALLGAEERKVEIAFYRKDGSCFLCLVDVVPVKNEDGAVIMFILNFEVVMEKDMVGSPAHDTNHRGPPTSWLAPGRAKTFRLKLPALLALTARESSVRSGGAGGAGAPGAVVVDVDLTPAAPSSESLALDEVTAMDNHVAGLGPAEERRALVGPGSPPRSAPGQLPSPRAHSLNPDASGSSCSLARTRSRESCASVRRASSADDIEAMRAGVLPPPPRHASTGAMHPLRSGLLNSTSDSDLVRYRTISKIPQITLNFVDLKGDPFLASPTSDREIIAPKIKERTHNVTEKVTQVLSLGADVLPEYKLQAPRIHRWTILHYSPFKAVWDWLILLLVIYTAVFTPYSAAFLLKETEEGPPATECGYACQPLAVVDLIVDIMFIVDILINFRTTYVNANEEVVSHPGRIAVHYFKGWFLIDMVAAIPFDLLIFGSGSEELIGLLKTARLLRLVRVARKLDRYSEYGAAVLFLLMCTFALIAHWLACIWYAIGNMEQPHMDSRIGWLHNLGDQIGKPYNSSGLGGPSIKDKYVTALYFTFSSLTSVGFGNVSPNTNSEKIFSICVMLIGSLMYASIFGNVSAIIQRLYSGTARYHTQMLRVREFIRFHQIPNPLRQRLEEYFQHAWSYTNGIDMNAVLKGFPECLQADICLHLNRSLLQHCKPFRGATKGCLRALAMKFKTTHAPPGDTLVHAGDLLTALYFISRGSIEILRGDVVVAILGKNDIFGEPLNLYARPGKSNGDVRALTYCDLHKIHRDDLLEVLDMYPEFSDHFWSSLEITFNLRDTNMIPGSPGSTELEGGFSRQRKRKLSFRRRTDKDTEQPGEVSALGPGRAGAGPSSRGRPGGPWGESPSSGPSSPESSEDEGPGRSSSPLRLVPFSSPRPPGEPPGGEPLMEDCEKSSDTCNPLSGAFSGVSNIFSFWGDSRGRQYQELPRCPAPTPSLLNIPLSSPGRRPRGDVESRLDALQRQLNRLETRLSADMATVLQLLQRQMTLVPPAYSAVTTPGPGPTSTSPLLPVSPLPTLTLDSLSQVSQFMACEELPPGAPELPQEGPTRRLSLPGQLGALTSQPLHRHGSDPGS

[13] = target: T1, Phosphatidylinositol 4,5-bisphosphate 3-kinase catalytic subunit gamma isoform; assay: Inhibition of PI3Kgamma in SDF-1alpha stimulated human whole blood assessed as reduction in phospho-AKT kinase activity preincubated for 1 hr followed by SDF-1alpha stimulation and measured after 2 mins by flow cytometric analysis; type: tissue-based
Target sequence in this assay (P48736 whole entry, canonical isoform): as the sequence (P48736 whole entry, looked up, canonical isoform) above

Cytochrome P450 2B6 = target: T2, Cytochrome P450 2B6 (Homo sapiens, UniProt P20813); assay: Time dependent inhibition of CYP2B6 in human liver microsomes at 40 uM measured after 5 to 20 mins in presence of NADPH by LC/MS/MS analysis; type: ADME, Microsome
T2 sequence (P20813 whole entry): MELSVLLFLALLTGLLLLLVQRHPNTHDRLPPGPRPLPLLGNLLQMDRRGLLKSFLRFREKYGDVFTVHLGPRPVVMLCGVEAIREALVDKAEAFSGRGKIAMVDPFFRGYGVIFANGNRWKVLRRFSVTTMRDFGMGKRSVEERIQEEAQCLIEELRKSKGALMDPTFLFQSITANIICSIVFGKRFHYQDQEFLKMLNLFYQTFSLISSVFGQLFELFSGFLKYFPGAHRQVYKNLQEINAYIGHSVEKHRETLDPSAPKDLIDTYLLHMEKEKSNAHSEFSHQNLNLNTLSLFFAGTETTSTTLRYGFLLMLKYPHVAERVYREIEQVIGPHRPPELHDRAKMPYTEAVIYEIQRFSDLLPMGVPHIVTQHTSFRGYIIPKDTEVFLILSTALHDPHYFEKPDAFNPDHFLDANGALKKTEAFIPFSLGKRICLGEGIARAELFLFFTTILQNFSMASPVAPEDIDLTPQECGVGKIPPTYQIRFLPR

[14] = target: Voltage-gated inwardly rectifying potassium channel KCNH2 (Homo sapiens, UniProt Q12809); assay: Inhibition of human ERG by patch clamp assay; type: toxicity
Cytochrome P450 3A4 = Cytochrome P450 3A4 (Homo sapiens, UniProt P08684); assay: Time dependent inhibition of CYP3A4 in human liver microsomes at 40 uM using midazolam as substrate measured after 5 to 20 mins in presence of NADPH by LC/MS/MS analysis; type: ADME, Microsome
Sequence of Cytochrome P450 3A4 (P08684 whole entry): as the sequence (P08684 whole entry) above

Cytochrome P450 1A2 = target: T3, Cytochrome P450 1A2 (Homo sapiens, UniProt P05177); assay: Time dependent inhibition of CYP1A2 in human liver microsomes at 40 uM using phenacetin as substrate measured after 5 to 20 mins in presence of NADPH by LC/MS/MS analysis; type: ADME, Microsome
T3 sequence (P05177 whole entry): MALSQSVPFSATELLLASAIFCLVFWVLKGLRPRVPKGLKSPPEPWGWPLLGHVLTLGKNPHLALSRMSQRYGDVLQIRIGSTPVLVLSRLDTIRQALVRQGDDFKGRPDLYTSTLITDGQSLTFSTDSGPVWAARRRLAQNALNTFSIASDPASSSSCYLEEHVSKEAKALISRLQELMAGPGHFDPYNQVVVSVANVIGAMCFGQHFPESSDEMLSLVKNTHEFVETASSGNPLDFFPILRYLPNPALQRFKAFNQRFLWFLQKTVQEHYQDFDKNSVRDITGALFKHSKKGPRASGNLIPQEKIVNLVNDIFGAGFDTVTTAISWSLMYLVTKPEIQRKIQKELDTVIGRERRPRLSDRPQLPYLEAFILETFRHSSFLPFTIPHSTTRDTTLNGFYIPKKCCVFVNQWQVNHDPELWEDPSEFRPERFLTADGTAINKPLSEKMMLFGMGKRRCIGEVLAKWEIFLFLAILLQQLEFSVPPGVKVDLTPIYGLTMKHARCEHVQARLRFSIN

Cytochrome P450 2C9 = Cytochrome P450 2C9 (Homo sapiens, UniProt P11712); assay: Time dependent inhibition of CYP2C9 in human liver microsomes at 40 uM using diclofenac as substrate measured after 5 to 20 mins in presence of NADPH by LC/MS/MS analysis; type: ADME, Microsome
Sequence of Cytochrome P450 2C9 (P11712 whole entry): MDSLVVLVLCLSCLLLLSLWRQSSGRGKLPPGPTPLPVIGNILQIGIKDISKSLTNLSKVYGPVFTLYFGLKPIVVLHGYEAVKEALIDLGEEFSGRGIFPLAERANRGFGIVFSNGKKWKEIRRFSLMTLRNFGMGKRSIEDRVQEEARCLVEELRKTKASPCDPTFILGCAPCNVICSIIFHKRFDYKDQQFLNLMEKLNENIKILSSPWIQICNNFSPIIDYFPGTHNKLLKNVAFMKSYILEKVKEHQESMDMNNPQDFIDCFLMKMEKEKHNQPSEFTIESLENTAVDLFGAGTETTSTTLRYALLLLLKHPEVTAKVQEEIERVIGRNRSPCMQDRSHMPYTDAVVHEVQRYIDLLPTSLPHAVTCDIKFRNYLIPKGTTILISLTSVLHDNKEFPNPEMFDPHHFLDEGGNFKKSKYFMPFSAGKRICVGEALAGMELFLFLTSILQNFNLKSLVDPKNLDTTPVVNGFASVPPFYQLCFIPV

Cytochrome P450 2C19 = Cytochrome P450 2C19 (Homo sapiens, UniProt P33261); assay: Time dependent inhibition of CYP2C19 in human liver microsomes at 40 uM using (S)-mephenytoin as substrate measured after 5 to 20 mins in presence of NADPH by LC/MS/MS analysis; type: ADME, Microsome
Sequence of Cytochrome P450 2C19 (P33261 whole entry): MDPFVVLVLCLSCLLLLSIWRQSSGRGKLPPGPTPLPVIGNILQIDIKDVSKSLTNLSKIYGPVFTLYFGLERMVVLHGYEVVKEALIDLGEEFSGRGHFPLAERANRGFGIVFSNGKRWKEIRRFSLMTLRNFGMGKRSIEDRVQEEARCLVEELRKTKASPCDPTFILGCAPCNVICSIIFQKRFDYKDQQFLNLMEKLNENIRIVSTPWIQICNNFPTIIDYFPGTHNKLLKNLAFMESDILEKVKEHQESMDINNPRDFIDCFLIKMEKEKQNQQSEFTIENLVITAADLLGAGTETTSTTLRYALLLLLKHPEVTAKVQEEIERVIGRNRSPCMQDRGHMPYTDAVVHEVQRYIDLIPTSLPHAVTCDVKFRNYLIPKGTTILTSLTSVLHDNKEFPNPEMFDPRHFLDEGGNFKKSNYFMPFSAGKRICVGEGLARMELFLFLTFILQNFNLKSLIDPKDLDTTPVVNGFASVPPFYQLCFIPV

Cytochrome P450 2D6 = Cytochrome P450 2D6 (Homo sapiens, UniProt P10635); assay: Time dependent inhibition of CYP2D6 in human liver microsomes at 40 uM using dextromethorphan as substrate measured after 5 to 20 mins in presence of NADPH by LC/MS/MS analysis; type: ADME, Microsome

Vdss [1]	half-life [2]	MRT inf [3]	remaining at 4 h, 0.5 µM [4]	inhibition [5]	Stability [6]	inhibition at 30 min, 10 µM (CYP3A4)	MRT inf [7]	inhibition [8]	IC50 [9]	CLH [10]	fraction unbound at 8 h [11]	MRT inf [12]	IC50 [13]	SMILES	inhibition at 10 µM (hERG)	other results
3.77 L/kg	3.65 h	3.58 h	> 95%	Active	58%	10%	2.33 h	Active	29.3 µM	30 mL/min/kg	0.023	3.85 h	0.24 µM	C[C@@H](C1CC1)N1Cc2cc(-c3ccn4nc(N)c(C(=O)N[C@H]5CC[C@@](C)(O)CC5)c4n3)cc(OC(F)(F)F)c2C1=O	5%	
3.69 L/kg	3.18 h	3.41 h	> 95%	Active	94%	10%	1.86 h	Active	9.21 µM	25 mL/min/kg	0.021	5.92 h	0.3 µM	C[C@@H](C1CC1)N1Cc2cc(-c3ccn4nc(N)c(C(=O)N[C@H]5CC[C@@](C)(O)CC5)c4n3)cc(OC(F)F)c2C1=O	17%	IC50 (Cytochrome P450 2B6): > 20 µM; IC50 [14]: > 10 µM; IC50 (Cytochrome P450 3A4): > 20 µM; IC50 (Cytochrome P450 1A2): > 20 µM; IC50 (Cytochrome P450 2C9): > 20 µM; IC50 (Cytochrome P450 2C19): > 20 µM; IC50 (Cytochrome P450 2D6): > 20 µM
